Reference: paper PMC11513923, “Discovery of ZLC491 as a Potent, Selective, and Orally Bioavailable CDK12/13 PROTAC Degrader” (Journal of Medicinal Chemistry, 2024)

Assays:
DDR genes = assay: RT-qPCR of DDR genes in MDA-MB-231 cells; assay type: cell-based, human; conditions: MDA-MB-231, different doses, 12 h
Procedure: We next evaluated the effect of ZLC491 on the expression of DDR genes regulated by CDK12/13.
(A) Transcription level of DDR genes in MDA-MB-231 cells determined by RT-qPCR upon the treatment with vehicle or ZLC491 at different doses for 12 h, ROR1 was used as a negative control; (B) immunoblotting of DDR proteins in MDA-MB-231 cells after the treatment of ZLC491 at different doses for 48 h; (C) cell antiproliferative activity of ZLC491 in multiple TNBC cells as well as several noncancerous cells. Cells were treated with the compound for 5 days; (D,E) antiproliferative potency of cisplatin or olaparib alone or combined with ZLC491 at different doses in MDA-MB-231 cells for 5 days. Data are plotted using the percentage of absorbance relative to DMSO controls. (F) IC50 values and combination index (CI) in drug combination assay. In this model, CI scores estimate the interaction between the two drugs. If CI < 1, the drugs have a synergistic effect and if CI > 1, the drugs have an antagonistic effect. […]
RNA utilized for RT-qPCR was extracted as outlined below. […] Expression was normalized to GAPDH, and fold change in expression was calculated relative to the indicated conditions using ΔΔCt method.

MDA-MB-231 cells = assay: Cell proliferation assay (CCK-8); assay type: cell-based; conditions: Homo sapiens, MDA-MB-231, 120 h; 5 days
Procedure: (§1) (A) Transcription level of DDR genes in MDA-MB-231 cells determined by RT-qPCR upon the treatment with vehicle or ZLC491 at different doses for 12 h, ROR1 was used as a negative control; (B) immunoblotting of DDR proteins in MDA-MB-231 cells after the treatment of ZLC491 at different doses for 48 h; (C) cell antiproliferative activity of ZLC491 in multiple TNBC cells as well as several noncancerous cells. Cells were treated with the compound for 5 days; (D,E) antiproliferative potency of cisplatin or olaparib alone or combined with ZLC491 at different doses in MDA-MB-231 cells for 5 days. Data are plotted using the percentage of absorbance relative to DMSO controls. (F) IC50 values and combination index (CI) in drug combination assay. In this model, CI scores estimate the interaction between the two drugs. If CI < 1, the drugs have a synergistic effect and if CI > 1, the drugs have an antagonistic effect. CI = 1 means the drugs have an additive effect. ^aThe drug combination in the table refers to the starting concentration of the two combined drugs, that would both go through serial dilution when treating cells.
(§2) TNBC cell lines MDA-MB-231, MDA-MB-436 and HCC38, human embryonic kidney cell line HEK 293 and human embryonic lung cell line MRC-5 were purchased from American Type Culture Collection (ATCC). Human mammary epithelial cell line MCF 10A was obtained from Chinese Academy of Sciences National Collection of Authenticated Cell Cultures. MDA-MB-231 was maintained in Leibovitz’ s L-15 medium (Gibco) supplemented with 10% fetal bovine serum (FBS; Excell Bio) and 1% penicillin/streptomycin (P/S; Gibco) at 37 °C in a humidified chamber of 100% air atmosphere. MDA-MB-436 and HCC38 were developed in Dulbecco’s modified Eagle medium (DMEM; Gibco) and RPMI-1640 medium (Gibco), respectively, both supplemented with 10% FBS (Excell Bio) and 1% P/S (Gibco), using a 37 °C constant temperature incubator with 5% CO2. HEK 293 and MRC-5 were cultured in the same condition with Eagle’s minimum essential medium (EMEM; Wisent). MCF 10A was grown in Mammary Epithelial Cell Growth Medium BulletKit (Lonza) at 37 °C in a humidified chamber with 5% CO2.
(§3) Tested cells were plated in 96-well or 384-well plates and incubated at 37 °C with or without 5% CO2. After overnight incubation, serial dilutions of compounds were added to the plate. Cell proliferation was measured 5 days after compound treatment using Cell Counting Kit-8 (Selleck) according to the manufacturer’s instructions.

MRC-5 cells = assay: Cell proliferation assay (CCK-8); assay type: cell-based; conditions: Homo sapiens, MRC5, 120 h; 5 days, noncancerous embryonic lung cells
Procedure: as §1, §2, §3

HCC38 cells = assay: Cell proliferation assay (CCK-8); assay type: cell-based; conditions: Homo sapiens, HCC38, 120 h; 5 days
Procedure: as §1, §2, §3

MCF 10A cells = assay: Cell proliferation assay (CCK-8); assay type: cell-based; conditions: Homo sapiens, 120 h, 5 days, noncancerous mammary epithelial cells
Procedure: as §1, §2, §3

HEK 293 cells = assay: Cell proliferation assay (CCK-8); assay type: cell-based; conditions: Homo sapiens, HEK293, 120 h; 5 days, noncancerous embryonic kidney cells
Procedure: as §1, §2, §3

MDA-MB-436 cells = assay: Cell proliferation assay (CCK-8); assay type: cell-based; conditions: Homo sapiens, MDA-MB-436, 120 h; 5 days
Procedure: as §1, §2, §3

N#Cc1ccc(N[C@H]2CC[C@H](N(C(=O)NCc3ccccc3)c3ccc(N4CCN(C5CCN(c6cc7c(cc6F)C(=O)N(C6CCC(=O)NC6=O)C7=O)CC5)CC4)cc3)CC2)nc1 (stereo partly shown) [ZLC491, 3-Benzyl-1-((1r,4r)-4-((5-cyanopyridin-2-yl)amino)cyclohexyl)-1-(4-(4-(1-(2-(2,6-dioxopiperidin-3-yl)-6-fluoro-1,3-dioxoisoindolin-5-yl)piperidin-4-yl)piperazin-1-yl)phenyl)urea]
transcription of DDR genes (ATM, ATR, BRCA1, BRCA2, FANCD2, SMARCC) (DDR genes): concentration-dependently suppressed | IC50 (MDA-MB-231 cells): 620 nM | IC50 (MRC-5 cells): > 10000 nM | IC50 (HCC38 cells): 190 nM | IC50 (MCF 10A cells): > 10000 nM | IC50 (HEK 293 cells): > 10000 nM | IC50 (MDA-MB-436 cells): 120 nM
